{
  "source": "patent US20100160454A1",
  "about": "“ANTIMICROBIAL AGENTS, COMPOSITIONS AND PRODUCTS CONTAINING THE SAME, AND METHODS OF USING THE COMPOSITIONS AND PRODUCTS” (Eastman Chemical Company, priority 2008, published 2010)",
  "experiment_in_all_cases": "Challenge testing against pathogenic fungi, growth rating in broth tubes",
  "type_in_all_cases": "cell-based",
  "set-up_in_all_cases": "key: 0: No visible growth; 1: Some growth in tube; 2: Moderate growth in tube; 3: Good growth in tube; 4: Extreme growth in tube",
  "key": {"[1]": {"tested_on": "Malassezia furfur (ATCC 96809)", "conditions": "Malassezia furfur", "protocol": "(§1) Both Microsporum canis and Trichophyton rubrum were grown on Sabouraud dextrose broth, while Malassezia fufur was grown in Sabouraud dextrose broth supplemented with 2% (v/v) of olive oil and 0.2% (v/v) of Tween™ 80; incubation was at 22°±2° C. under continuous agitation by stirring for 10 days. The organisms were grown to a density of between 1.0×10^3 to 1.0×10^4 cfu/g. The actual inoculation cell density of these challenges were determined by diluting in sterile buffer water and (spread-plate method) plating for enumeration.\n(§2) Challenge organisms were used to inoculate tubes of 1,4-CHDM-D90 test concentrations prepared in Sabouraud dextrose broth (or Sabouraud dextrose broth supplemented with olive oil-Tween™ 80 with M. furfur). The inoculations were in the amount of 1.5 mL aliquots of each culture with static incubation at 22±2° C. Subcultures were made at 3-, 14- and 30-day increments. All challenges were conducted in triplicate. In the case of M. canis, the growth response was assessed by the visual presence/absence of growth in the tubes; in the case of T. rubrum, a respiratory (redox) dye (0.2% w/v aqueous INT solution: 2-[4-iodophenyl)-3-4-nitrophenyl]-5-phenyl tetrazolium chloride) was added to the tubes, turning red if the organism was viable; and, finally, in the case of M. furfur, the growth response was assessed based upon pellicle formation in the tubes at the meniscus. The test formulations and challenge test results, as well as 30-day MICs (Minimum Inhibitory Concentration), are in Tables 7-9 for the three organisms using the following growth rating system:\n(§3) • 0: No visible growth • 1: Some growth in tube • 2: Moderate growth in tube • 3: Good growth in tube • 4: Extreme growth in tube"}, "[2]": {"tested_on": "Trichophyton rubrum (ATCC 10218)", "conditions": "Trichophyton rubrum", "protocol": "as §1, §2, §3"}, "[3]": {"tested_on": "Microsporum canis (ATTC 9084)", "conditions": "Microsporum canis", "protocol": "as §1, §2, §3"}, "[4]": {"conditions": "test concentration 0.5%, 3 days"}, "[5]": {"conditions": "test concentration 0.5%, 14 days"}, "[6]": {"conditions": "test concentration 0.5%, 30 days"}, "[7]": {"conditions": "test concentration 1.25%, 3 days"}, "[8]": {"conditions": "test concentration 1.25%, 14 days"}, "[9]": {"conditions": "test concentration 1.25%, 30 days"}, "[10]": {"conditions": "test concentration 2.5%, 3 days"}, "[11]": {"conditions": "test concentration 2.5%, 14 days"}, "[12]": {"conditions": "test concentration 2.5%, 30 days"}},
  "data": [
    {"smiles": "OCC1CCC(CO)CC1", "note": "(stereo not drawn) [1,4-CHDM-D90, 1,4-cyclohexanedimethanol]", "values": [
      {"measurement": "Growth Rating", "setting": "[1]; [4]", "result": 0},
      {"measurement": "Growth Rating", "setting": "[1]; [5]", "result": 1},
      {"measurement": "Growth Rating", "setting": "[1]; [6]", "result": 2},
      {"measurement": "Growth Rating", "setting": "[1]; [7]", "result": "0/0/0"},
      {"measurement": "Growth Rating", "setting": "[1]; [8]", "result": "0/0/0"},
      {"measurement": "Growth Rating", "setting": "[1]; [9]", "result": "0/0/0"},
      {"measurement": "Growth Rating", "setting": "[1]; [10]", "result": "0/0/0"},
      {"measurement": "Growth Rating", "setting": "[1]; [11]", "result": "0/0/0"},
      {"measurement": "Growth Rating", "setting": "[1]; [12]", "result": "0/0/0"},
      {"measurement": "Growth Rating", "setting": "[1]; test concentration 5%, 3 days", "result": "0/0/0"},
      {"measurement": "Growth Rating", "setting": "[1]; test concentration 5%, 14 days", "result": "0/0/0"},
      {"measurement": "Growth Rating", "setting": "[1]; test concentration 5%, 30 days", "result": "0/0/0"},
      {"measurement": "Growth Rating", "setting": "[2]; [4]", "result": "1/1/1"},
      {"measurement": "Growth Rating", "setting": "[2]; [5]", "result": "1/1/1"},
      {"measurement": "Growth Rating", "setting": "[2]; [6]", "result": "1/1/1"},
      {"measurement": "Growth Rating", "setting": "[2]; [7]", "result": "0/0/0"},
      {"measurement": "Growth Rating", "setting": "[2]; [8]", "result": "0/0/0"},
      {"measurement": "Growth Rating", "setting": "[2]; [9]", "result": "0/0/0"},
      {"measurement": "Growth Rating", "setting": "[2]; [10]", "result": "0/0/0"},
      {"measurement": "Growth Rating", "setting": "[2]; [11]", "result": "0/0/0"},
      {"measurement": "Growth Rating", "setting": "[2]; [12]", "result": "0/0/0"},
      {"measurement": "Growth Rating", "setting": "[2]; test concentration 5%, 3 days", "result": 1},
      {"measurement": "Growth Rating", "setting": "[2]; test concentration 5%, 14 days", "result": 0},
      {"measurement": "Growth Rating", "setting": "[2]; test concentration 5%, 30 days", "result": 0},
      {"measurement": "Growth Rating", "setting": "[3]; [4]", "result": 2},
      {"measurement": "Growth Rating", "setting": "[3]; [5]", "result": 1},
      {"measurement": "Growth Rating", "setting": "[3]; [6]", "result": 1},
      {"measurement": "Growth Rating", "setting": "[3]; [7]", "result": 2},
      {"measurement": "Growth Rating", "setting": "[3]; [8]", "result": 1},
      {"measurement": "Growth Rating", "setting": "[3]; [9]", "result": 1},
      {"measurement": "Growth Rating", "setting": "[3]; [10]", "result": 2},
      {"measurement": "Growth Rating", "setting": "[3]; [11]", "result": 0},
      {"measurement": "Growth Rating", "setting": "[3]; [12]", "result": 0},
      {"measurement": "Growth Rating", "setting": "[3]; test concentration 5%, 3 days", "result": "0/0/0"},
      {"measurement": "Growth Rating", "setting": "[3]; test concentration 5%, 14 days", "result": "0/0/0"},
      {"measurement": "Growth Rating", "setting": "[3]; test concentration 5%, 30 days", "result": "0/0/0"}
    ]}
  ]
}
